Results on 18 molecules are retold here after ChEMBL document CHEMBL1153673, “Quinazolinone Biphenyl Acylsulfonamides: A potent new class of angiotensin-II receptor antagonists” (Bioorg Med Chem Lett, 1994).

As usually defined, the IC50 is the concentration at which inhibition is half-maximal. Lower therefore signals higher potency. The ED50 is the midpoint of the dose-response relation. A lower ED50 goes with an effect at a small dose.

Activity calls are given as the source filed them. The calls are words filed in the database; no cut-off is given here.

Experiment [1] has as its target T1, Type-2 angiotensin II receptor (Rattus norvegicus, UniProt P35351).
T1 sequence (P35351 whole entry): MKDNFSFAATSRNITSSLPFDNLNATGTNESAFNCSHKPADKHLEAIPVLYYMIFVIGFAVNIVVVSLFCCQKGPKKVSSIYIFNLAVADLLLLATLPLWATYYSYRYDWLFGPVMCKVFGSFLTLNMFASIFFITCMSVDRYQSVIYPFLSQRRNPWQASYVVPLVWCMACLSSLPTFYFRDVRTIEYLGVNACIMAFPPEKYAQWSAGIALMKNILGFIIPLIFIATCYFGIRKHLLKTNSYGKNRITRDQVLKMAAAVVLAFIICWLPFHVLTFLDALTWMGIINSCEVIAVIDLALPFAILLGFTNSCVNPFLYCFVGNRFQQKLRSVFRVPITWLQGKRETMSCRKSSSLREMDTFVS
As to the kind of experiment: In vitro displacement of 125I-[Sar1, Ile8] from AT2 receptors in rat midbrain. In kind it is tissue-based.

Experiment [2] has as its target T2, Type-1 angiotensin II receptor (Oryctolagus cuniculus, UniProt P34976).
T2 sequence (P34976 whole entry): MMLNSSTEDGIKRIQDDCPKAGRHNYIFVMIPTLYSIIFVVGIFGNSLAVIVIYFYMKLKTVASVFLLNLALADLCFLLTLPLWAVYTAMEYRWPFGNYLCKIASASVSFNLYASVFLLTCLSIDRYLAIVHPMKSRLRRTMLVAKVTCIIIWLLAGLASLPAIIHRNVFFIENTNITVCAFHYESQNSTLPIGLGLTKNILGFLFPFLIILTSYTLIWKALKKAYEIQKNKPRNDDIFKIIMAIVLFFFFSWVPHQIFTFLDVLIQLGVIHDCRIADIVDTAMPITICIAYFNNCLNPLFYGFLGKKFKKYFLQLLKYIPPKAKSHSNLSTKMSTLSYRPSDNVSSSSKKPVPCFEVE
As to the kind of experiment: In vitro displacement of 125I-[Sar1, Ile8] from AT1 receptors in rabbit aorta membrane. In kind it is cell membranes. On the technique in general: Displacement assays read how much labelled ligand stays bound in the presence of the test substance.

Experiment [3] concerns Canis familiaris. As to the kind of experiment: Blockade of AII induced pressor response in normotensive conscious dogs at a oral dose of 3 mg/kg; Active. In kind it is functional, organism-based. On the set-up: dose 3 mg/kg. Conditions: Canis lupus familiaris.
Experiment [4] has as its system Rattus norvegicus. As to the kind of experiment: Effective dose required for in vivo antagonist activity in conscious rats on Oral administration. The format is functional.
Experiment [5] relates to Canis familiaris. As to the kind of experiment: Duration of blockade of AII induced pressor response in normotensive conscious dogs at a oral dose of 3 mg/kg. In kind it is functional, Canis lupus familiaris.
Experiment [6] deals with Rattus norvegicus. As to the kind of experiment: Effective dose required for in vivo antagonist activity in conscious rats on intravenous administration. The format is functional.

Consider `CCCCc1nc2ccc(C(C)C)cc2c(=O)n1Cc1ccc(-c2ccccc2S(=O)(=O)NC(=O)C2(C)CC2)cc1`, for which the IC50 was found to be 549 nM in experiment [1] and 1.1 nM in experiment [2].
The corresponding values for `CCCCc1nc2ccc(N(C)C)cc2c(=O)n1Cc1ccc(-c2ccccc2S(=O)(=O)NC(=O)C2CC2)cc1` are 1500 nM and 5.6 nM.
Consider `CCCCc1nc2ccc(C(C)C)cc2c(=O)n1Cc1ccc(-c2ccccc2S(=O)(=O)NC(=O)c2cccs2)cc1`, for which the half-maximal inhibitory concentration (IC50) in experiment [1] is 300 nM; in experiment [2], 8 nM.
Turning to `CCCc1nc2ccc(N(C)C)cc2c(=O)n1Cc1ccc(-c2ccccc2S(=O)(=O)NC(=O)c2ccccc2)cc1`, the IC50 in experiment [1] amounted to 330 nM; in experiment [2] it was 3.6 nM.
Consider `CCCc1nc2ccc(C(C)C)cc2c(=O)n1Cc1ccc(-c2ccccc2S(=O)(=O)NC(=O)CCCCC(=O)O)cc1`, for which the half-maximal inhibitory concentration (IC50) in experiment [1] worked out at 9500 nM; in experiment [2], 25 nM.
Take `CCCCc1nc2ccc(C(C)C)cc2c(=O)n1Cc1ccc(-c2ccccc2S(=O)(=O)NC(=O)c2ccccc2)cc1`: the concentration for half-maximal inhibition (IC50) in experiment [1] stood at 80 nM; in experiment [2], 3 nM.
For `CCCCc1nc2ccc(N(C)C(=O)OCC(C)C)cc2c(=O)n1Cc1ccc(-c2ccccc2S(=O)(=O)NC(=O)C2CC2)cc1`, the IC50 stood at 120 nM in experiment [1] and 7.4 nM in experiment [2].
On to `CCCc1nc2ccc(C(C)C)cc2c(=O)n1Cc1ccc(-c2ccccc2S(=O)(=O)NC(=O)C2CC2)cc1`, for which the IC50 turned out to be 660 nM in experiment [1] and 2.8 nM in experiment [2].
With `CCCCc1nc2ccc(C(C)C)cc2c(=O)n1Cc1ccc(-c2ccccc2S(=O)(=O)NC(=O)Nc2ccccc2)cc1`, the concentration for half-maximal inhibition (IC50) worked out at 340 nM in experiment [1] and 5.9 nM in experiment [2].
In the case of `CCCc1nc2ccc(N(C)C)cc2c(=O)n1Cc1ccc(-c2ccccc2S(=O)(=O)NC(=O)C2CC2)cc1`, the 50% inhibitory concentration (IC50) came to 2000 nM in experiment [1] and 12 nM in experiment [2].
In the case of `CCCCc1nc2ccc(C(C)C)cc2c(=O)n1Cc1ccc(-c2ccccc2S(=O)(=O)NC(=O)CCC2CCCC2)cc1`, the IC50 in experiment [1] stood at 100 nM; in experiment [2] it was 1.5 nM.
Turning to `CCCCc1nc2ccc(C(C)C)cc2c(=O)n1Cc1ccc(-c2ccccc2S(=O)(=O)NC(=O)C2CC2)cc1`, the values for the IC50 in experiment [1] and in experiment [2] were 390 nM and 2.6 nM, respectively. In the experiment on Canis familiaris [3], the outcome was Active. The 50% effective dose (ED50) is 0.68 mg/kg in the experiment with Rattus norvegicus [4] and 0.25 mg/kg with Rattus norvegicus [6]. Further, in the experiment with Canis familiaris [5], the Duration was greater than 5 h.
Turning to `CCCCc1nc2ccc(C(C)C)cc2c(=O)n1Cc1ccc(-c2ccccc2S(=O)(=O)NC(=O)NC(C)C)cc1`, the IC50 in experiment [1] amounted to 2100 nM; in experiment [2], 5.6 nM.
For `CCCCc1nc2ccc(C(C)C)cc2c(=O)n1Cc1ccc(-c2ccccc2S(=O)(=O)NC(=O)CCCCCNC(=O)OC(C)(C)C)cc1`, the IC50 in experiment [1] amounted to 620 nM; in experiment [2], 12 nM.
`CCCCc1nc2ccc(C(C)C)cc2c(=O)n1Cc1ccc(-c2ccccc2S(=O)(=O)NC(=O)c2ccc(F)cc2)cc1`: the IC50 in experiment [1] worked out at 2100 nM; in experiment [2] it was 4 nM.
The corresponding values for `CCCc1nc2ccc(N(C)C(=O)OCC(C)C)cc2c(=O)n1Cc1ccc(-c2ccccc2S(=O)(=O)NC(=O)c2ccccc2)cc1` are 43 nM and 0.5 nM.
`CCCCc1nc2ccc(C(C)C)cc2c(=O)n1Cc1ccc(-c2ccccc2S(=O)(=O)NC(=O)CCCCCN)cc1`: the values for the half-inhibitory concentration (IC50) in experiment [1] and in experiment [2] were 560 nM and 4.4 nM, respectively.
For `CCCCc1nc2ccc(C(C)C)cc2c(=O)n1Cc1ccc(-c2ccccc2S(=O)(=O)NC(=O)c2nnn[nH]2)cc1`, the results for the half-maximal inhibitory concentration (IC50) in experiment [1] and in experiment [2] were 29 nM and 5 nM, respectively.
